Assay results from patent publication EP0162330B1, “Use of sterolins and spiroketalins in the production of medicaments for the treatment of psoriasis” (Roecar Holdings (Netherlands Antilles) N.V., priority 1984, dated 1985).

Legend:
[1] = target: T1, 12-lipoxygenase of the platelets (Homo sapiens, UniProt P18054); assay: Influence upon lipoxygenase: thrombin-stimulated washed human platelets (method of Schroer et al); assay type: cell-based; conditions: washed human platelets stimulated with thrombin (0.6 iU/ml)
T1 construct: endogenous in cells; host or cells: washed human platelets
T1 sequence (P18054 1-663): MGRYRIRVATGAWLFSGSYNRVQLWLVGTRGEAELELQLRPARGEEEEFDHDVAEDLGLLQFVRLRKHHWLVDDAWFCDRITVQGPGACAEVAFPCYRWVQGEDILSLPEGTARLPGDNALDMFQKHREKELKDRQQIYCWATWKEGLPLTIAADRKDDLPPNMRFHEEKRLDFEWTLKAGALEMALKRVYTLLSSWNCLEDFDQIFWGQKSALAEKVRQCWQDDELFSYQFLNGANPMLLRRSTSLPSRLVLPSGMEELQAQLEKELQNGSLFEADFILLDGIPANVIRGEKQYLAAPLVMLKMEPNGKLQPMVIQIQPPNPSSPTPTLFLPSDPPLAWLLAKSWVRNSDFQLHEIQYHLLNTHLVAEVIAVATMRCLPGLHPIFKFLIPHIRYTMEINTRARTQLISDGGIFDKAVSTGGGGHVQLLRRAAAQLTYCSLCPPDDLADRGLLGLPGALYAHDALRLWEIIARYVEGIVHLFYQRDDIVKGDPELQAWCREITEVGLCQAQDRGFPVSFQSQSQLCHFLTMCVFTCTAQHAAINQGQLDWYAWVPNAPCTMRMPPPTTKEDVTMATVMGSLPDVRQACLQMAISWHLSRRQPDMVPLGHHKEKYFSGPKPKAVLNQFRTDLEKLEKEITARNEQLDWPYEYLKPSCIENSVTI
Procedure: The tests were performed according to the method devised by Schroer et al, Naunyn-Schmiedeberg's Arch. Pharmak. 313, 69 (1980). According to this method washed human platelets are stimulated with thrombin (0.6 iU/ml). Arachidonic acid released from the platelets upon stimulation is transformed by the 12-lipoxygenase of the platelets into 12-hydro-peroxy-eicosatetraenoic acid (12-HPETE).

[2] = system: antigen-induced SRS-A (leukotriene) mediated bronchoconstriction; assay: In vivo antigen-induced SRS-A (leukotriene) mediated bronchoconstriction (method of Anderson et al); design: species or system guinea pigs; conditions: n=8
Source text: The effect of β-Sitosterol-β-D-glucoside was investigated on antigen-induced SRS-A (leukotriene) mediated bronchoconstriction according to the method of Anderson et al (Br. J. Pharmacol. 78,67-74, 1983). Twenty-eight to thirty-three days after the single ovalbumine dose the guinea pigs were anaesthetised and surgically prepared for intravenous administration of the test compounds and measuring the ventilatory pressure. Prior to the antigen (ovalbumine) challenge the animals were adequately pretreated with indomethacin, pyrilamine and propanolol to eliminate the effect of other interfering mediators released during the anaphylactic reaction. The test substance was administered 1 minute before the ovalbumine challenge.
The vehicle (50% DMSO in water) served as a control. Phenindone was used as the standard reference substance.

12-lipoxygenase [3] = assay: In vitro lipoxygenase inhibition in leucocyte preparations, arachidonic acid products by radio thin-layer chromatography; assay type: cell-based, human
Procedure: (§1) Washed and resuspended platelets or leucocytes were incubated in one test with a saturated solution of β-sitosterol β-D-glucoside (23,5 mg/10ml ethanol) and in a second test with a 10 times oversaturated solution with addition of 0.25 µCi arachidonic acid for 5 minutes. The test mixtures were then acidified and extracted with ethyl acetate. Separation of the reaction products was performed by radio-thinlayer-chromatography.
(§2) The number of leukocytes in test 1 was 2000 and in test 2, 1600 and the number of platelets in the platelets test 1 was 140 000 and in test 2 it was 240 000.
(§3) After incubation with the test substance a significant inhibition of the lipoxygenase products can be shown when using platelets leading to a near complete synthesis inhibition and accumulation of non-metabolized arachidonic acid. As far as leucocytes are concerned, there is a dosage-dependant inhibitory effect of the lipoxygenase whereby the changes are mainly based on 12-hydroxyeicoscatetraenoic acid (12-HETE) and 12-HPETE while lesser changes are observed for HHT.

12-lipoxygenase [4] = target: T2, 12-lipoxygenase (Homo sapiens, UniProt P18054); assay: In vitro lipoxygenase inhibition in platelets, arachidonic acid products by radio thin-layer chromatography; assay type: cell-based; conditions: 120' saturated solution
T2 construct: endogenous in cells; host or cells: washed human platelets
T2 sequence (P18054 1-663): T1 sequence (P18054 1-663)
Procedure: as §1, §2, §3

[5] = 10 mg/kg i.v., 1 minute after challenge

`CCCCCC#CCC#CCC#CCC#CCCCC(=O)O` [ETYA, 5,8,11,14-eicosatetraynoic acid, reference compound] gave an inhibition at 10 µM ([1]; 10 µM/ml) of 97%.

With `O=C1CCN(c2ccccc2)N1` [Phenidone, reference compound] the “MEAN CHANGE (AS % OF MAX ±S.E.M.) IN VENTILATION PRESSURE AFTER OVALBUMIN ADMINISTRATION” value [2, 5] was 3.1 ±1.0 % OF MAX.

For `CC[C@H](CC[C@@H](C)[C@H]1CC[C@H]2[C@@H]3CC=C4C[C@@H](O[C@@H]5O[C@H](CO)[C@@H](O)[C@H](O)[C@H]5O)CC[C@]4(C)[C@H]3CC[C@]12C)C(C)C` [β-Sitosterol- β-D-glucoside, β-sitosterol β-D-glucoside], the “12 HETE 12 HPETE in %” value (12-lipoxygenase [3]; test 1, leukocytes (2000), 30' oversaturated (10 times) solution, normal 50.2) was 12.4%, the “12 HETE 12 HPETE in %” value (12-lipoxygenase [3]; test 1, leukocytes (2000), 30' saturated solution (23,5 mg/10ml ethanol), normal 50.2) was 35.9% and the “12 HETE 12 HPETE in %” value (12-lipoxygenase [3]; test 1, leukocytes (2000), 120' saturated solution, normal 50.2) was 13.4%. For the same compound, the “12 HETE 12 HPETE in %” value (12-lipoxygenase [3]; test 2, leukocytes (1600), 30' oversaturated (10 times) solution, normal 48.0) was 22.7%, the “12 HETE 12 HPETE in %” value (12-lipoxygenase [3]; test 2, leukocytes (1600), 30' saturated solution, normal 48.0) was 37.0% and the “12 HETE 12 HPETE in %” value (12-lipoxygenase [3]; test 2, leukocytes (1600), 120' saturated solution, normal 48.0) was 2.7%. For the same compound, the “12 HETE 12 HPETE in %” value (12-lipoxygenase [4]; test 1, platelets (140 000), normal 39.8) was 3.8%, the “12 HETE 12 HPETE in %” value (12-lipoxygenase [4]; test 2, platelets (240 000), normal 35.0) was 11.9% and the “MEAN CHANGE (AS % OF MAX ±S.E.M.) IN VENTILATION PRESSURE AFTER OVALBUMIN ADMINISTRATION” value ([2]; 1 mg/kg i.v., 1 minute after challenge) was 5.8 ±4.5 % OF MAX. The “MEAN CHANGE (AS % OF MAX ±S.E.M.) IN VENTILATION PRESSURE AFTER OVALBUMIN ADMINISTRATION” value [2, 5] was 1.8 ±2.8 % OF MAX and the “MEAN CHANGE (AS % OF MAX ±S.E.M.) IN VENTILATION PRESSURE AFTER OVALBUMIN ADMINISTRATION” value ([2]; 10 mg/kg i.v., 2 minutes after challenge) was 31.0 ±9.8 % OF MAX.

In the case of Diosgeninglucoside, the inhibition ([1]; 5 µM/ml) is reported as 13%, the inhibition ([1]; 10 µM/ml) is reported as 31% and the inhibition ([1]; 50 uM/ml) is reported as 60%.
